# Assay results from patent publication US6939854B2, “Peptide inhibitors of hepatitis C virus NS3 protease” (priority 2000, dated 2005).
# Biological target: T1, Human neutrophil elastase (Homo sapiens, UniProt P08246)
# T1 construct: purchased ART Biochemicals, Athens, Ga
# T1 sequence (P08246 30-267): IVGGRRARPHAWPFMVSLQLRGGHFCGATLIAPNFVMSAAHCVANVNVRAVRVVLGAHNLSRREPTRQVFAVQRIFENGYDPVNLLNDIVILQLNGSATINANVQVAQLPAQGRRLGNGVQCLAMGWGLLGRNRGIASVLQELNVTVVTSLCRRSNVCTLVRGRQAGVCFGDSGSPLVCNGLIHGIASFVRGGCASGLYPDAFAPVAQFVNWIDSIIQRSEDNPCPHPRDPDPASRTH
# Assay: Inhibitory selectivity of HCV NS3 protease over elastase (human neutrophil elastase assay)
# Type: biochemical
# Details: IC50 (elastase) divided by IC50 (HCV NS3)
# Description: Selectivity of HCV NS3 over elastase can be calculated by dividing IC50 (elastase) over IC50 (HCV NS3). Similarily, selectivity of HCV NS3 over chymotrypsin can be calculated by dividing IC50 (chymotrypsin) over IC50 (HCV NS3).
# Human neutrophil elastase was obtained from ART Biochemicals, Athens, Ga. Stock solutions of lyophilized enzyme (1 mg/ml) were prepared in PBS buffer containing 10% glycerol and stored at −20 ° C. Human neutrophil elastase was assayed with the Meo-Suc-Ala-Ala-Pro-Val-p-nitroanilide (Sigma) as a substrate (C. Kettner and A. Shenvi, 1984). The hydrolysis of substrate was monitored at 405 nm on a Hewlett-Packard spectrophotometer.
row,Molecule,Selectivity of HCV NS3 vs. elastase
1,H-Asp-Glu-Val-Val-Pro-(1R)-1-amino-3-(3-methyl)phenylpropylboronic acid (+)-pinanediol ester [Example 9],>10
2,H-Asp-Glu-Val-Val-Pro-(1R)-1-amino-3-(4-tert-butyl)phenylpropylboronic acid (+)-pinanediol ester [Example 20],>10
3,H-Asp-Glu-Val-Val-Pro-(1R)-1-amino-5-phenylpentylboronic acid (+)-pinanediol ester [Example 5],9
4,H-Asp-Glu-Val-Val-Pro-(1R)-1-amino-3-(4-fluoro)phenylpropylboronic acid (+)-pinanediol ester [Example 16],>10
5,H-Asp-Glu-Val-Val-Pro-(1R)-1-amino-3-(4-hydroxy)phenylpropylboronic acid (+)-pinanediol ester [Example 27],>10
6,H-Asp-Glu-Val-Val-Pro-(1R)-1-amino-5-methylhexylboronic acid (+)-pinanediol ester [Example 36],>10
7,"H-Asp-Glu-Val-Val-Pro-(1R)-1-amino-3-(1,1′-biphenyl)-4-ylpropylboronic acid (+)-pinanediol ester [Example 11]",>10
8,H-Asp-Glu-Val-Val-Pro-(1R)-1-amino-3-phenylpropylboronic acid (+)-pinanediol ester [Example 3],>10
9,H-Asp-Glu-Val-Val-Pro-(1R)-1-amino-3-(4-methyl)phenylpropylboronic acid (+)-pinanediol ester [Example 10],>10
10,"CC(C)[C@H](NC(=O)c1cnccn1)C(=O)N[C@H](C(=O)N1C[C@H](OCc2ccccc2)C[C@H]1C(=O)N[C@@H](CCc1ccc(C(F)(F)F)cc1)B1OC2CC3CC(C3(C)C)C2(C)O1)C(C)C (stereo partly drawn) [Example 34, (2-pyrazinecarbonyl)-Val-Val-Hyp(OBzl)-(1R)-1-amino-3-(4-trifluoromethyl)phenylpropylboronic acid (+)-pinanediol ester]",7
11,H-Asp-Glu-Val-Val-Pro-(1R)-1-amino-3-(4-bromo)phenylpropylboronic acid (+)-pinanediol ester [Example 23],>10
12,H-Asp-Glu-Val-Val-Pro-(1R)-1-amino-3-(4-isopropyl)phenylpropylboronic acid (+)-pinanediol ester [Example 18],>10
13,H-Asp-Glu-Val-Val-Pro-(1R)-1-amino-3-(4-methoxy)phenylpropylboronic acid (+)-pinanediol ester [Example 21],>10
14,H-Asp-Glu-Val-Val-Pro-(1R)-1-amino-3-(4-chloro)phenylpropylboronic acid (+)-pinanediol ester [Example 22],>10
15,H-Asp-Glu-Val-Val-Pro-(1R)-1-amino-3-(4-trifluoromethyl)phenylpropylboronic acid (+)-pinanediol ester [Example 14],>10
16,H-Asp-Glu-Val-Val-Pro-(1R)-1-amino-3-(4-phenoxy)phenylpropylboronic acid (+)-pinanediol ester [Example 17],>10
17,H-Asp-Glu-Val-Val-Pro-(1R)-1-amino-3-(4-cyclohexyl)phenylpropylboronic acid (+)-pinanediol ester [Example 19],>10
